# US5652238A, “Esters of substituted-hydroxyacetyl piperazine phenyl oxazolidinones” (Pharmacia & Upjohn Company, priority 1996, dated 1997)
# Key:
# [1] = Aqueous solubility (pH 7, phosphate buffer); assay type: physicochemical
# [2] = tested on: Staphylococcus aureus UC9213 or Streptococcus species; assay: Antimicrobial activity in vivo, Murine Assay (mice infected intraperitoneally with bacteria; ED50 from survival over six days); conditions: 144 h, female mice, treatment one hour and five hours after infection
# Description: Antimicrobial activity was tested in vivo using the Murine Assay procedure. Groups of female mice (six mice of 18-20 grams each) were injected intraperitoneally with bacteria which were thawed just prior to use and suspended in brain heart infusion with 4% brewers yeast UC9213 (Staphylococcus aureus) or brain heart infusion (Streptococcus species). Antibiotic treatment at six dose levels per drug was administered one hour and five hours after infection by either oral intubation or subcutaneous ("subcut.") routes. Survival was observed daily for six days. ED50 values based on mortality ratios were calculated using probit analysis. The subject compounds were compared against a well-known antimicobial (Vancomycin) as a control.
compound,measurement,setting,value
"CC(=O)NC[C@H]1CN(c2ccc(N3CCN(C(=O)COC(=O)CN4CCN(C)CC4)CC3)c(F)c2)C(=O)O1 [Example 13, (4-Methyl-1-piperazinyl)acetic acid, 2-[4-[4-[5-[(acetylamino)methyl]-2-oxo-3-oxazolidinyl]-2-fluorophenyl]-1-piperazinyl]-2-oxoethyl ester, (S)-]",solubility,[1],79.1 mg/mL
same,ED50,[2]; oral,> 20 mg/kg
same,ED50,"[2]; sc, subcut.",> 20 mg/kg
"COCCOC(=O)OCC(=O)N1CCN(c2ccc(N3C[C@H](CNC(C)=O)OC3=O)cc2F)CC1 [Example 6, Carbonic acid, 2-[4-[4-[5-[(acetylamino)methyl]-2-oxo-3-oxazolidinyl]-2-fluorophenyl]-1-piperazinyl]-2-oxoethyl ester-2-methoxyethyl ester, (S)]",solubility,[1],2.9 mg/mL
same,ED50,[2]; oral,2 mg/kg
same,ED50,"[2]; sc, subcut.",2 mg/kg
"CC(=O)NC[C@H]1CN(c2ccc(N3CCN(C(=O)COC(=O)CN(C)C)CC3)c(F)c2)C(=O)O1 [Example 9, Glycine, N,N-dimethyl-, 2-[4-[4-[5-[(acetylamino)methyl]-2-oxo-oxazolidinyl]-2-fluorophenyl]-1-piperazinyl]-2-oxoethyl ester, (S)-]",solubility,[1],150 mg/mL
same,ED50,[2]; oral,2 mg/kg
same,ED50,"[2]; sc, subcut.",3 mg/kg
"CC(=O)NC[C@H]1CN(c2ccc(N3CCN(C(=O)COC(=O)CN4CCOCC4)CC3)c(F)c2)C(=O)O1 [Example 27, (4-morpholinyl)acetic acid, 2-(4-(4-(5-((acetylamino)methyl)-2-oxo-3-oxazolidinyl)-2-fluorophenyl)-1-piperazinyl)-2-oxoethyl ester, (S)]",solubility,[1],55.3 mg/mL
same,ED50,[2]; oral,6 mg/kg
